In US20240124483A1, “Methods for the Treatment of Fibrotic Disease” (SHY Therapeutics, LLC, priority 2021, published 2024):

Assays:
MAPK p38 = MAPK p38 Activation Assay in C2C12 (western blot); type: cell-based, mouse; parameters: key: Y = yes; N = No; conditions: at 10 μM
Experimental: (§1) Cell lines: Human tumor-derived pancreatic cancer cell line Panc-1 and mouse muscle myoblast C2C12 were purchased from American Type Culture Collection and grown in complete DMEM-High Glucose, supplemented with penicillin (100 U/mL), streptomycin (100 μg/mL), and 10% heat-inactivated FBS at 37° C. in a humidified incubator with 5% CO2.
(§2) Method: Cells were plated at 350000 cells/well density in a 12-well plate, allowed 3 hours to adhere to the plate, then starved in the appropriate medium in the presence of 0.5% FBS overnight. The small molecules to be tested were added to the cells in the final concentration of 10 μM in the presence of 0.3% DMSO for 3 hours incubation at 37° C. For IC50 value determination, serial dilutions of compounds were added to cells under the same conditions. […] Protein concentration was assessed by BCA protein assay (Thermo Scientific). Phosphorylation level of MAPK p38 was determined by western blot.
(§3) Western blot protocol: Equal amounts of protein (15-50 μg) were separated by SDS-PAGE and transferred to nitrocellulose membranes (Invitrogen by Thermo Fisher Scientific). […] Membranes were blocked with 10% milk and phosphorylation levels of Smad2/Smad3 were assessed by incubating overnight at 4° C. with the following antibody: Phospho-p38 MAPK (Thr180/Tyr182), from Cell Signaling Technology. […]

Smad2/3 phosphorylation = test: Phospho-Smad2/3 Inhibition Assay in C2C12 (western blot); type: cell-based; conditions: Mus musculus; for IC50: C2C12, TGF-b1 stimulated
Experimental: as §1
Method: Cells were plated at 350000 cells/well density in a 12-well plate, allowed 3 hours to adhere to the plate, then starved in the appropriate medium in the presence of 0.5% FBS overnight. The small molecules to be tested were added to the cells in the final concentration of 10 μM in the presence of 0.3% DMSO for 3 hours incubation at 37° C. For IC50 value determination, serial dilutions of compounds were added to cells under the same conditions. Next, Panc-1 cells were stimulated with 10 ng/ml TGF-b1 for 1 hour, and C2C12 cells were stimulated with 10 ng/ml TGF-b1 for 20 minutes (recombinant human TGF-b1, R&D Systems). After stimulation cells were lysed with lysis buffer containing 1% Triton X-100, EDTA, and Halt™ Protease & Phosphatase Inhibitor Cocktail (Thermo Scientific). Protein concentration was assessed by BCA protein assay (Thermo Scientific). Phosphorylation level of Smad2/Smad3 was determined by western blot.
Western blot protocol: Equal amounts of protein (15-50 μg) were separated by SDS-PAGE and transferred to nitrocellulose membranes (Invitrogen by Thermo Fisher Scientific). The membrane was stained with Ponceau S Stain (Boston BioProducts) to verify uniform protein loading. Membranes were blocked with 10% milk and phosphorylation levels of Smad2/Smad3 were assessed by incubating overnight at 4° C. with the following antibodies: Phospho-Smad2 (Ser465/467) and Phosph-Smad3 (Ser423/425), both from Cell Signaling Technology. Then the membranes were incubated with HRP-conjugated secondary antibody (Jackson Immunoresearch, West Grove, PA). Bands were incubated in Amersham ECL Prime Western Blotting Detection Reagent (GE Healthcare) and visualized using the ChemiDoc MP imaging system (Bio-Rad).

JNK = JNK Activation Assay in C2C12 (western blot); type: cell-based, mouse; parameters: key: Y = yes; N = No; conditions: at 10 μM
Experimental: as §1
as §2, with “JNK” for “MAPK p38”
as §3, with “Smad2, Smad3, INK and p38” for “Smad2/Smad3”, “Phospho-SAPK/JNK (Thr183/Tyr185),” for “Phospho-p38 MAPK (Thr180/Tyr182),”

| Compound | Activation of MAPK p38 in C2C12 (MAPK p38) | IC50 (Smad2/3 phosphorylation) [µM] | Activation of JNK in C2C12 (JNK) | inhibition at 10 µM (Smad2/3 phosphorylation; 10 μM, 3 hours, C2C12 stimulated with 10 ng/ml TGF-b1 for 20 minutes, read-out: % inh of Smad2/3 phosphorylation in C2C12) [%] |
| --- | --- | --- | --- | --- |
| COCCNc1nc(-c2cn(C)cn2)nc2sc(-c3cccc(OC)c3Cl)c(-c3ccc(OC)cc3)c12 [Compound 8, 6-(2-Chloro-3-methoxyphenyl)-N-(2-methoxyethyl)-5-(4-methoxyphenyl)-2-(1-methyl-1H-imidazol-4-yl)thieno[2,3-d]pyrimidin-4-amine] | Y | 1 to 4.99 | Y |  |
| COCCNc1nc(-c2nccn2C)nc2sc(-c3cccc(OC)c3Cl)c(-c3ccccc3)c12 [Compound 9, 6-(2-Chloro-3-methoxyphenyl)-N-(2-methoxyethyl)-2-(1-methyl-1H-imidazol-2-yl)-5-phenylthieno[2,3-d]pyrimidin-4-amine] | Y | 1 to 4.99 | Y | 76 to 100 |
| COc1cccc(Nc2nc(-c3nccn3C)nc3sc(-c4ccn(C(C)C)n4)c(C)c23)c1 [Compound 17, 6-(1-Isopropyl-1H-pyrazol-3-yl)-N-(3-methoxyphenyl)-5-methyl-2-(1-methyl-1H-imidazol-2-yl)thieno[2,3-d]pyrimidin-4-amine] |  | 5 to 10 |  |  |
| COc1cccc(Nc2nc(-c3nccn3C)nc3sc(-c4ccn(C(C)C)n4)c(C)c23)n1 [Compound 18, 6-(1-Isopropyl-1H-pyrazol-3-yl)-N-(6-methoxypyridin-2-yl)-5-methyl-2-(1-methyl-1H-imidazol-2-yl)thieno[2,3-d]pyrimidin-4-amine] |  | 5 to 10 |  |  |
| COc1cc(Nc2nc(-c3nccn3C)nc3sc(-c4ccn(C(C)C)n4)c(C)c23)ncn1 [Compound 19, 6-(1-Isopropyl-1H-pyrazol-3-yl)-N-(6-methoxypyrimidin-4-yl)-5-methyl-2-(1-methyl-1H-imidazol-2-yl)thieno[2,3-d]pyrimidin-4-amine] |  | > 10 |  |  |
